Measurements reported in patent US20260053171A1, “METHANOGEN INHIBITORS” (AGRIZERONZ LIMITED PARTNERSHIP, priority 2022, published 2026).

Tested on: methane production in rumen fluid
Assay: Rumen in vitro (RIV) assay, methane production from rumen fluid incubations
Type: cell-based, cattle
Settings: Bos taurus, read-out: RIV % methane reduction +/− SD
Method: The compounds of the present invention were initially screened for activity using an in vitro fully automated incubation system for the measurement of total gas production and gas composition (methane and hydrogen). The system used is described in detail in the paper by Muetzel et al. (2014; Animal Feed Science and Technology 196, 1-11). The system in this specification is referred to as the rumen in vitro system or RIV. The RIV system provides a relatively simple tool for determining the rate and production of methane and also whether the rate and production of methane is inhibited or reduced by a particular compound or feed. Rumen in vitro assays use rumen fluid from donor animals (typically either sheep or cattle) which is typically combined with a buffer and then incubated in sealed fermentation vessels at 39° C. for either 24 or 48 h. These assays systems have been well-characterised and used by the scientific community over the last two decades (Rymer et al. 2005). The system that has been used here to characterise the effects of inhibitors on methane production and gas production, and the formation of H2, was described by Muetzel et al. (2014). Rumen in vitro assay systems reflect what can occur in the rumen in vivo, but only short-term, due to their short incubation times (typically not exceeding 48 h) which is limited by its buffering capacity and the fact that it is a closed system. Stock solutions of inhibitors were re-suspended in dimethylformamide (DMF) at concentrations 1000-fold higher than the highest used for the assays. Any further dilutions were also prepared using DMF. The total amount of inhibitor solution added to the rumen fluid-buffer mixture (60 mL) was 60 μl. Incubations used 60 ml of medium containing 12 ml of filtered rumen fluid and 48 ml of buffer in serum bottles for 24-48 h, essentially as described by Muetzel et al. (2014). Two fistulated cattle were used as donor animals for rumen fluid and treatments were incubated in duplicate bottles. Sets of duplicate incubation vials that contained ryegrass (with rumen fluid-buffer mixture), and ryegrass with 30 μM bromoethanesulfonate (BES) were also incubated as negative and positive controls, respectively. One experiment consists of 2 replicates of an inhibitor at any one concentration run at the same time, and a run can contain up to 32 bottle, including positive (30 µM BES) and negative (no inhibitor added) controls. Compound 1, for example, was tested using the 60 mL rumen in vitro assay system at 50 μM, 10 μM, and 2 μM final concentrations and compared to a positive control with 30 µM BES.

Structure (SMILES) | inhibition at 10 µM [%] | inhibition at 50 µM [%] | inhibition at 2 µM [%]
O=C(O)CCC(=O)N1N=C(c2ccc(-c3ccoc3)cc2)CC1c1ccc2nccnc2c1 (stereo not shown) [Compound 108, 4-(3-(4-(Furan-3-yl)phenyl)-5-(quinoxalin-6-yl)-4,5-dihydro-1H-pyrazol-1-yl)-4-oxobutanoic acid] | 6.3 ± 6.1 | 48.3 ± 2.8 | –
CC(C)Oc1ccc(-c2ccc(C3=NN(C(=O)CCC(=O)NS(C)(=O)=O)C(c4ccc5nccnc5c4)C3)cc2)cc1 (stereo not shown) [Compound 117, 4-(3-(4′-Isopropoxy-[1,1′-biphenyl]-4-yl)-5-(quinoxalin-6-yl)-4,5-dihydro-1H-pyrazol-1-yl)-N-(methylsulfonyl)-4-oxobutanamide] | 72.5 ± 4 | – | 9.1 ± 2.4
O=C(O)CCC(=O)N1N=C2c3ccc(-c4ccc(OC(F)(F)F)cc4)cc3CCC2C1c1ccc2nccnc2c1 (stereo not shown) [Compound 76, 4-Oxo-4-(3-(quinoxalin-6-yl)-7-(4-(trifluoromethoxy)phenyl)-3,3a,4,5-tetrahydro-2H-benzo[g]indazol-2-yl)butanoic acid] | 77.3 ± 1.3 | 96.5 | 21.1 ± 3.2
O=C(O)CCC(=O)N1N=C2c3cc(-c4ccccc4)ccc3CCC2C1c1ccc2nccnc2c1 (stereo not shown) [Compound 74, 4-Oxo-4-(8-phenyl-3-(quinoxalin-6-yl)-3,3a,4,5-tetrahydro-2H-benzo[g]indazol-2-yl)butanoic acid] | 87.8 ± 0.7 | 97.2 ± 0.5 | 9 ± 1.9
O=C(O)c1cccc(N2N=C(c3cccc(-c4ccccc4)c3)CC2c2ccc3nccnc3c2)c1 (stereo not shown) [Compound 114, 3-(3-([1,1′-Biphenyl]-3-yl)-5-(quinoxalin-6-yl)-4,5-dihydro-1H-pyrazol-1-yl)benzoic acid] | 58.3 ± 16.6 | – | –
O=C(O)CCC(=O)N1N=C(c2ccc(Cl)cc2)CC1c1ccc2c(c1)OC(F)(F)O2 (stereo not shown) [Compound 38, 4-(3-(4-Chlorophenyl)-5-(2,2-difluorobenzo[d][1,3]dioxol-5-yl)-4,5-dihydro-1H-pyrazol-1-yl)-4-oxobutanoic acid] | 55.8 ± 1.8 | 93.4 ± 0.5 | –
COc1ccc(C2CC(c3ccc(Cl)cc3)=NN2C(=O)CCC(=O)O)c(OC)c1 (stereo not shown) [Compound 42, 4-(3-(4-Chlorophenyl)-5-(2,4-dimethoxyphenyl)-4,5-dihydro-1H-pyrazol-1-yl)-4-oxobutanoic acid] | 10.5 ± 3.5 | 80 ± 4.7 | –
O=C(CCC(=O)N1N=C(c2ccc(Cl)cc2)CC1c1ccc2nccnc2c1)NS(=O)(=O)c1ccccc1 (stereo not shown) [Compound 70, 4-(3-(4-Chlorophenyl)-5-(quinoxalin-6-yl)-4,5-dihydro-1H-pyrazol-1-yl)-4-oxo-N-(phenylsulfonyl) butanamide] | 88.9 ± 1.5 | – | 27.1 ± 13.1
O=C(O)CCC(=O)N1N=C(c2ccc(-c3ccc(OC4CC4)cc3)cc2)CC1c1ccc2nccnc2c1 (stereo not shown) [Compound 84, 4-(3-(4′-Cyclopropoxy-[1,1′-biphenyl]-4-yl)-5-(quinoxalin-6-yl)-4,5-dihydro-1H-pyrazol-1-yl)-4-oxobutanoic acid] | 75.1 ± 4.2 | – | 9.8 ± 1
O=C(O)CCC(=O)N1N=C(c2ccc(-c3ccc(OC(F)(F)F)c(Cl)c3)cc2)CC1c1ccc2nccnc2c1 (stereo not shown) [Compound 102, 4-(3-(3′-Chloro-4′-(trifluoromethoxy)-[1,1′-biphenyl]-4-yl)-5-(quinoxalin-6-yl)-4,5-dihydro-1H-pyrazol-1-yl)-4-oxobutanoic acid] | 52.8 ± 2.5 | – | –
O=C(O)CCC(=O)N1N=C(c2ccc(-c3ccc(SC(F)(F)F)cc3)cc2)CC1c1ccc2nccnc2c1 (stereo not shown) [Compound 94, 4-Oxo-4-(5-(quinoxalin-6-yl)-3-(4′-((trifluoromethyl)thio)-[1,1′-biphenyl]-4-yl)-4,5-dihydro-1H-pyrazol-1-yl)butanoic acid] | 32.7 ± 1.2 | – | –
O=C(O)CCC(=O)N1N=C(c2ccc(Cl)c(Cl)c2)CC1c1ccc2nccnc2c1 (stereo not shown) [Compound 11, 4-(3-(3,4-Dichlorophenyl)-5-(quinoxalin-6-yl)-4,5-dihydro-1H-pyrazol-1-yl)-4-oxobutanoic acid] | – | 62.8 ± 3.4 | –
